{"source": "patent US20250144067A1", "about": "“PERSONALIZED STARVATION THERAPY FOR CANCER” (Faeth Therapeutics, Inc., priority 2021, published 2025)", "key": {"[1]": {"test_system": "NCI-H292 lung cancer cells", "assay": "FDA drug screening, complete media vs cholesterol-free media without statin (TABLE 1)", "format": "cell-based, human"}, "[2]": {"test_system": "NCI-H292 lung cancer cells", "assay": "FDA drug screening, complete media vs cholesterol-free media with simvastatin (TABLE 2)", "format": "cell-based, human", "conditions": "for Cholesterol-free media + simvastatin (0.04 μM) / Complete Media: NCI-H292 cells"}, "[3]": {"conditions": "NCI-H292 cells, cholesterol-free media without statin, FDA drug library screen"}, "[4]": {"conditions": "NCI-H292 cells, complete media, FDA drug library screen"}, "[5]": {"conditions": "complete vs cholesterol-free media, >0 enhanced anti-cancer activity, about 0 neutral, <0 antagonist"}, "[6]": {"conditions": "FDA drug library screen, cholesterol-free media with simvastatin 0.04 μM"}, "[7]": {"conditions": "FDA drug library screen, complete media"}, "[8]": {"conditions": "complete media vs cholesterol-free media + simvastatin (0.04 μM), >0 enhanced anti-cancer activity, about 0 neutral, <0 antagonist"}, "[9]": {"conditions": "Complete minus Cholesterol-free, >0 enhanced anti-cancer activity, about 0 neutral, <0 antagonist"}, "[10]": {"conditions": "NCI-H292 cells, cholesterol-free media without statin"}, "[11]": {"conditions": "cholesterol-free media with simvastatin 0.04 μM, FDA drug library screen (TABLE 2)"}, "[12]": {"conditions": "complete media, FDA drug library screen (TABLE 2)"}, "[13]": {"conditions": "complete media minus cholesterol-free media + simvastatin (0.04 μM), >0 enhanced anti-cancer activity, about 0 neutral, <0 antagonist"}, "[14]": {"conditions": "complete vs cholesterol-free media, greater than 0 enhanced anti-cancer activity, about 0 neutral, below 0 antagonists"}, "[15]": {"conditions": "complete media minus cholesterol-free media + simvastatin, >0 enhanced anti-cancer activity, about 0 neutral, <0 antagonist"}, "[16]": {"conditions": "Complete minus Cholesterol-free, greater than 0 enhanced anti-cancer activity, about 0 neutral, below 0 antagonist"}, "[17]": {"conditions": "NCI-H292 cells, FDA drug library screen, cholesterol-free media without statin"}, "[18]": {"conditions": "NCI-H292 cells, FDA drug library screen, complete media"}, "[19]": {"conditions": "drug in cholesterol-free media with simvastatin 0.04 μM"}}, "data": [{"smiles": "O=C(O)COC(=O)Cc1ccccc1Nc1c(Cl)cccc1Cl", "note": "[Aceclofenac]", "values": [{"measurement": "Cholesterol-free", "setting": "[1]; [3]", "result": 0.9513}, {"measurement": "Complete", "setting": "[1]; [4]", "result": 1.14}, {"measurement": "Difference", "setting": "[1]; [5]", "result": 0.19}, {"measurement": "Cholesterol-free media + simvastatin (0.04 μM)", "setting": "[2]; [6]", "result": 1.455}, {"measurement": "Complete Media", "setting": "[2]; [7]", "result": 1.329}, {"measurement": "Difference", "setting": "[2]; [8]", "result": "−0.13"}]}, {"smiles": "Cn1c(=O)c2c(ncn2CC(=O)O)n(C)c1=O", "note": "[Acefylline]", "values": [{"measurement": "Difference", "setting": "[1]; [9]", "result": "−0.31"}, {"measurement": "Cholesterol-free", "setting": "[1]; [10]", "result": 1.455}, {"measurement": "Cholesterol-free media + simvastatin (0.04 μM)", "setting": "[2]; [11]", "result": 1.078}, {"measurement": "Complete Media", "setting": "[2]; [12]", "result": 1.058}, {"measurement": "Difference", "setting": "[2]; [13]", "result": "−0.02"}]}, {"smiles": "CC(=O)NC(CCC(N)=O)C(=O)O", "note": "(stereo not shown) [Aceglutamide]", "values": [{"measurement": "Cholesterol-free", "setting": "[1]; [10]", "result": 1.178}, {"measurement": "Complete", "setting": "[1]; NCI-H292 cells, complete media", "result": 0.7674}, {"measurement": "Difference", "setting": "[1]; [14]", "result": "−0.41"}, {"measurement": "Cholesterol-free media + simvastatin (0.04 μM)", "setting": "[2]; [6]", "result": 0.762}, {"measurement": "Complete Media", "setting": "[2]; [7]", "result": 1.026}, {"measurement": "Difference", "setting": "[2]; [15]", "result": 0.26}]}, {"smiles": "COc1ccc2c(c1)c(CC(=O)OCC(=O)O)c(C)n2C(=O)c1ccc(Cl)cc1", "note": "[Acemetacin]", "values": [{"measurement": "Cholesterol-free", "setting": "[1]; [3]", "result": 1.099}, {"measurement": "Complete", "setting": "[1]; [4]", "result": 1.479}, {"measurement": "Difference", "setting": "[1]; [5]", "result": 0.38}, {"measurement": "Cholesterol-free media + simvastatin (0.04 μM)", "setting": "[2]; FDA library drug in cholesterol-free media with simvastatin 0.04 μM", "result": 2.236}, {"measurement": "Complete Media", "setting": "[2]; FDA library drug in complete media", "result": 1.509}, {"measurement": "Difference", "setting": "[2]; [8]", "result": "−0.73"}]}, {"smiles": "CC(=O)CC(c1ccc([N+](=O)[O-])cc1)c1c(O)c2ccccc2oc1=O", "note": "(stereo not shown) [Acenocoumarol]", "values": [{"measurement": "Difference", "setting": "[1]; [9]", "result": "−0.28"}, {"measurement": "Cholesterol-free", "setting": "[1]; [10]", "result": 1.889}, {"measurement": "Complete", "setting": "[1]; NCI-H292 cells, complete media", "result": 1.605}, {"measurement": "Cholesterol-free media + simvastatin (0.04 μM)", "setting": "[2]; [6]", "result": 2.014}, {"measurement": "Difference", "setting": "[2]; [13]", "result": "−0.90"}]}, {"smiles": "CC(=O)Nc1nnc(S(N)(=O)=O)s1", "note": "[Acetazolamide]", "values": [{"measurement": "Cholesterol-free", "setting": "[1]; [3]", "result": 0.821}, {"measurement": "Complete", "setting": "[1]; [4]", "result": 0.9414}, {"measurement": "Difference", "setting": "[1]; [5]", "result": 0.12}, {"measurement": "Cholesterol-free media + simvastatin (0.04 μM)", "setting": "[2]; [11]", "result": 0.9594}, {"measurement": "Complete Media", "setting": "[2]; [12]", "result": 0.9398}, {"measurement": "Difference", "setting": "[2]; [13]", "result": "−0.02"}]}, {"smiles": "CC(=O)c1ccc(S(=O)(=O)NC(=O)NC2CCCCC2)cc1", "note": "[Acetohexamide]", "values": [{"measurement": "Difference", "setting": "[1]; [16]", "result": "−0.13"}, {"measurement": "Cholesterol-free", "setting": "[1]; [17]", "result": 1.163}, {"measurement": "Complete", "setting": "[1]; [18]", "result": 1.03}, {"measurement": "Cholesterol-free media + simvastatin (0.04 μM)", "setting": "[2]; [6]", "result": 1.214}, {"measurement": "Complete Media", "setting": "[2]; [7]", "result": 1.116}, {"measurement": "Difference", "setting": "[2]; [8]", "result": "−0.10"}]}, {"smiles": "CC(=O)NO", "note": "[Acetohydroxamic acid]", "values": [{"measurement": "Difference", "setting": "[1]; [9]", "result": "−0.28"}, {"measurement": "Cholesterol-free", "setting": "[1]; [10]", "result": 1.174}, {"measurement": "Complete", "setting": "[1]; NCI-H292 cells, complete media", "result": 0.8978}, {"measurement": "Cholesterol-free media + simvastatin (0.04 μM)", "setting": "[2]; cholesterol-free media with simvastatin 0.04 μM, cell growth value in FDA drug screen", "result": 0.8799}, {"measurement": "Complete Media", "setting": "[2]; complete media, cell growth value in FDA drug screen", "result": 0.8992}, {"measurement": "Difference", "setting": "[2]; [15]", "result": 0.02}]}, {"smiles": "CC(=O)OCC[N+](C)(C)C.[Cl-]", "note": "[Acetylcholine (chloride)]", "values": [{"measurement": "Cholesterol-free", "setting": "[1]; [3]", "result": 1.32}, {"measurement": "Complete", "setting": "[1]; [4]", "result": 1.724}, {"measurement": "Difference", "setting": "[1]; [5]", "result": 0.40}, {"measurement": "Cholesterol-free media + simvastatin (0.04 μM)", "setting": "[2]; [19]", "result": 0.9864}, {"measurement": "Complete Media", "setting": "[2]; drug in complete media", "result": 0.8029}, {"measurement": "Difference", "setting": "[2]; [8]", "result": "−0.18"}]}, {"smiles": "CC(=O)OCC[N+](C)(C)C.[I-]", "note": "[Acetylcholine (iodide)]", "values": [{"measurement": "Cholesterol-free", "setting": "[1]; [10]", "result": 1.351}, {"measurement": "Complete", "setting": "[1]; NCI-H292 cells, complete media", "result": 1}, {"measurement": "Difference", "setting": "[1]; [14]", "result": "−0.35"}, {"measurement": "Cholesterol-free media + simvastatin (0.04 μM)", "setting": "[2]; [19]", "result": 1.762}, {"measurement": "Complete Media", "setting": "[2]; drug in complete media", "result": 1.59}, {"measurement": "Difference", "setting": "[2]; [8]", "result": "−0.17"}]}, {"smiles": "CC(=O)N[C@@H](CS)C(=O)O", "note": "[Acetylcysteine]", "values": [{"measurement": "Difference", "setting": "[1]; Complete minus Cholesterol-free, greater than 0 enhanced anti-cancer activity, about 0 neutral, below 0 antagonists", "result": "−0.64"}, {"measurement": "Cholesterol-free", "setting": "[1]; NCI-H292 cells in cholesterol-free media without statin", "result": 1.369}, {"measurement": "Complete", "setting": "[1]; NCI-H292 cells in complete media", "result": 0.7324}, {"measurement": "Cholesterol-free media + simvastatin (0.04 μM)", "setting": "[2]; [19]", "result": 1.145}, {"measurement": "Complete Media", "setting": "[2]; drug in complete media", "result": 0.9059}, {"measurement": "Difference", "setting": "[2]; [8]", "result": "−0.24"}]}, {"smiles": "CC(=O)N[C@@H](CC(C)C)C(=O)O", "note": "[Acetylleucine]", "values": [{"measurement": "Difference", "setting": "[1]; [16]", "result": "−0.09"}, {"measurement": "Cholesterol-free", "setting": "[1]; [17]", "result": 0.9104}, {"measurement": "Complete", "setting": "[1]; [18]", "result": 0.8206}, {"measurement": "Cholesterol-free media + simvastatin (0.04 μM)", "setting": "[2]; [11]", "result": 0.8948}, {"measurement": "Complete Media", "setting": "[2]; [12]", "result": 0.8714}, {"measurement": "Difference", "setting": "[2]; [13]", "result": "−0.02"}]}, {"smiles": "Cc1cnc(C(=O)O)c[n+]1[O-]", "note": "[Acipimox]", "values": [{"measurement": "Cholesterol-free", "setting": "[1]; [10]", "result": 1.354}, {"measurement": "Complete", "setting": "[1]; NCI-H292 cells, complete media", "result": 1.008}, {"measurement": "Difference", "setting": "[1]; [14]", "result": "−0.35"}, {"measurement": "Cholesterol-free media + simvastatin (0.04 μM)", "setting": "[2]; [6]", "result": 1.352}, {"measurement": "Complete Media", "setting": "[2]; [7]", "result": 1.26}, {"measurement": "Difference", "setting": "[2]; [8]", "result": "−0.09"}]}, {"smiles": "COc1cc(C)c(/C=C/C(C)=C/C=C/C(C)=C/C(=O)O)c(C)c1C", "note": "[Acitretin]", "values": [{"measurement": "Difference", "setting": "[1]; Complete minus Cholesterol-free, […]", "result": "−0.08"}, {"measurement": "Cholesterol-free", "setting": "[1]; [17]", "result": 0.8064}, {"measurement": "Complete", "setting": "[1]; [18]", "result": 0.7285}, {"measurement": "Cholesterol-free media + simvastatin (0.04 μM)", "setting": "[2]; cholesterol-free media with simvastatin 0.04 μM, […]", "result": 0.7241}, {"measurement": "Complete Media", "setting": "[2]; complete media, […]", "result": 0.76}, {"measurement": "Difference", "setting": "[2]; complete media minus cholesterol-free media + simvastatin, […]", "result": 0.04}]}]}
